# Where a SMILES comes first, the peptide text is derived from it. [ ]: non-standard residue; d: D form. ξ: configuration not given here. ξBip(2'-Et-4'-OMe) = CCc1cc(OC)ccc1-c1ccc(CC(N)C(=O)O)cc1; Arg(NO2) = N=C(NCCC[C@H](N)C(=O)O)N[N+](=O)[O-]; ξαMePhe(2,6-F2) = CC(N)(Cc1c(F)cccc1F)C(=O)O; ξαMe(hhPhe) = CC(N)(CCCc1ccccc1)C(=O)O; ξαMePhe(2-F) = CC(N)(Cc1ccccc1F)C(=O)O; hhPhe = N[C@@H](CCCc1ccccc1)C(=O)O; hArg = N=C(N)NCCCC[C@H](N)C(=O)O; hCit = NC(=O)NCCCC[C@H](N)C(=O)O; Cit = NC(=O)NCCC[C@H](N)C(=O)O; ξαMeF = CC(N)(Cc1ccccc1)C(=O)O; ξαMeM = CSCCC(C)(N)C(=O)O; Nle = CCCC[C@H](N)C(=O)O; ξαMeP = CC1(C(=O)O)CCCN1; Ac5c = NC1(C(=O)O)CCCC1; Ac3c = NC1(C(=O)O)CC1; Aib = CC(C)(N)C(=O)O
# Legend:
# Format in all cases: in vitro ADME
# [1] = Stability of peptides in human liver microsomes
# Outline: (§1)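 Peptides at 2 μM final incubated 0–24 h at 37 °C (50 mM triethanolamine-HCl, pH 7.8) in each matrix, matrix level set to degrade ~50% PTH(1-34) in 1 h; TFA-quenched, C18 HPLC at 206 nm with ESI-MS peak identification; percent degradation from peak areas at each time point.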
# [2] = Stability of peptides in simulated gastric fluid (pH 1.5; HCl, NaCl and Pepsin); conditions: for half-life / half-life (t1/2) in simulated gastric fluid: simulated gi fluid
# [3] = Stability of peptides in simulated intestinal fluid (pH 7.5); conditions: for half-life / half-life (t1/2) in simulated intestinal fluid: simulated gi fluid
# Outline: as §1
# [4] = Stability of peptides in human plasma
# Outline: as §1
# [5] = human, microsomes, 2 μM, pH 7.8
# [6] = simulated gastric fluid, 2 μM, pH 1.5
# [7] = simulated intestinal fluid, 2 μM, pH 7.5
"half-life (t1/2) in liver microsomes ([1]; human, microsomes)","% degradation of peptides in 24 h when incubated with liver microsomes [1, 5]","% degradation of peptides in 24 h when incubated with simulated gastric fluid [2, 6]",half-life ([2]; pH 1.5),half-life ([3]; pH 7.5),"% degradation of peptides in 24 h when incubated with simulated intestinal fluid [3, 7]","half-life ([4]; human, plasma)","metabolised at 24 h, 2 μM ([4]; human, plasma, pH 7.8)","half-life ([1]; human, microsomes)",Compound,also measured
,85%,45%,4 h,> 24 h,00%,> 24 h,0%,2 h,"CCCC[C@H](NC(=O)C(C)(Cc1c(F)cccc1F)NC(=O)[C@H](CCC(N)=O)NC(=O)[C@@H](NC(=O)[C@H](CCC(=O)O)NC(=O)C(C)(C)NC(=O)[C@@H](NC(=O)C(C)(C)N)C(C)C)[C@@H](C)CC)C(=O)N[C@@H](Cc1c[nH]cn1)C(=O)N[C@@H](CCC(N)=O)C(=O)N[C@@H](CCCCNC(N)=O)C(=O)NC(C)(C)C(=O)NC(C)(C)C(=O)NC(C)(Cc1ccccc1F)C(N)=O (stereo partly shown) [Seq. ID. 430] (H-[Aib]V[Aib]EIQ[ξαMePhe(2,6-F2)][Nle]HQ[hCit][Aib][Aib][ξαMePhe(2-F)]-NH2)",
(5) h,32%,00%,> 24 h,> 24 h,00%,> 24 h,0%,,"CCCC[C@H](NC(=O)C(C)(Cc1c(F)cccc1F)NC(=O)[C@H](CCC(N)=O)NC(=O)[C@@H](NC(=O)[C@H](CCC(=O)O)NC(=O)C(C)(C)NC(=O)[C@@H](NC(=O)C1(N)CCCC1)C(C)C)[C@@H](C)CC)C(=O)N[C@@H](Cc1c[nH]cn1)C(=O)N[C@@H](CCC(N)=O)C(=O)NC(C)(Cc1c(F)cccc1F)C(=O)NC(C)(C)C(=O)N[C@@H](CCCNC(N)=O)C(=O)NC(C)(Cc1ccccc1F)C(N)=O (stereo partly shown) [Seq. ID. 480] (H-[Ac5c]V[Aib]EIQ[ξαMePhe(2,6-F2)][Nle]HQ[ξαMePhe(2,6-F2)][Aib][Cit][ξαMePhe(2-F)]-NH2)",
,80%,14%,,,43%,8 h,78%,1 h,"CCCC[C@H](NC(=O)C(C)(Cc1c(F)cccc1F)NC(=O)[C@H](CCC(N)=O)NC(=O)[C@@H](NC(=O)[C@H](CCC(=O)O)NC(=O)C(C)(C)NC(=O)[C@@H](NC(=O)C1(N)CCCC1)C(C)C)[C@@H](C)CC)C(=O)N[C@@H](Cc1c[nH]cn1)C(=O)N[C@@H](CCC(N)=O)C(=O)NC(C)(C)C(=O)NC(C)(C)C(=O)NC(C)(C)C(=O)NC(C)(Cc1ccccc1F)C(N)=O (stereo partly shown) [Seq. ID. 560] (H-[Ac5c]V[Aib]EIQ[ξαMePhe(2,6-F2)][Nle]HQ[Aib][Aib][Aib][ξαMePhe(2-F)]-NH2)",half-life (t1/2) in simulated gastric fluid ([2]; pH 1.5): (8) h; half-life (t1/2) in simulated intestinal fluid ([3]; pH 7.5): (6) h

# The remaining lines, values behind:
Compound,"half-life (t1/2) in liver microsomes ([1]; human, microsomes)","% degradation of peptides in 24 h when incubated with liver microsomes [1, 5]","% degradation of peptides in 24 h when incubated with simulated gastric fluid [2, 6]",half-life ([2]; pH 1.5),half-life ([3]; pH 7.5),"% degradation of peptides in 24 h when incubated with simulated intestinal fluid [3, 7]","half-life ([4]; human, plasma)","metabolised at 24 h, 2 μM ([4]; human, plasma, pH 7.8)","half-life ([1]; human, microsomes)",also measured
"CCCC[C@H](NC(=O)C(C)(Cc1c(F)cccc1F)NC(=O)[C@H](CCC(N)=O)NC(=O)[C@@H](NC(=O)[C@H](CCC(=O)O)NC(=O)C(C)(C)NC(=O)[C@@H](NC(=O)C(C)(C)N)C(C)C)[C@@H](C)CC)C(=O)N[C@@H](Cc1c[nH]cn1)C(=O)N[C@@H](CCC(N)=O)C(=O)NC(C)(Cc1c(F)cccc1F)C(=O)N[C@@H](C)C(=O)NC(C)(Cc1c(F)cccc1F)C(=O)NC(Cc1ccc(-c2ccc(OC)cc2CC)cc1)C(=O)N[C@@H](CCCc1ccccc1)C(N)=O (stereo partly shown) [Seq. ID. 880] (H-[Aib]V[Aib]EIQ[ξαMePhe(2,6-F2)][Nle]HQ[ξαMePhe(2,6-F2)]A[ξαMePhe(2,6-F2)][ξBip(2'-Et-4'-OMe)][hhPhe]-NH2)",(5) h,31%,00%,> 24 h,> 24 h,00%,> 24 h,0%,,
"CC[C@H](C)[C@H](NC(=O)[C@H](CCC(=O)O)NC(=O)[C@H](CO)NC(=O)[C@@H](NC(=O)[C@@H](N)CO)C(C)C)C(=O)N[C@@H](CCC(N)=O)C(=O)N[C@@H](CC(C)C)C(=O)N[C@@H](CCSC)C(=O)N[C@@H](Cc1cnc[nH]1)C(=O)N[C@@H](CC(N)=O)C(=O)N[C@@H](CC(C)C)C(=O)NCC(=O)N[C@@H](CCCCN)C(=O)N[C@@H](Cc1cnc[nH]1)C(=O)N[C@@H](CC(C)C)C(=O)N[C@@H](CC(N)=O)C(=O)N[C@@H](CO)C(=O)N[C@@H](CCSC)C(=O)N[C@@H](CCC(=O)O)C(=O)N[C@@H](CCCN=C(N)N)C(=O)N[C@H](C(=O)N[C@@H](CCC(=O)O)C(=O)N[C@@H](Cc1c[nH]c2ccccc12)C(=O)N[C@@H](CC(C)C)C(=O)N[C@@H](CCCN=C(N)N)C(=O)N[C@@H](CCCCN)C(=O)N[C@@H](CCCCN)C(=O)N[C@@H](CC(C)C)C(=O)N[C@@H](CCC(N)=O)C(=O)N[C@@H](CC(=O)O)C(=O)N[C@H](C(=O)N[C@@H](Cc1cnc[nH]1)C(=O)N[C@@H](CC(N)=O)C(=O)N[C@@H](Cc1ccccc1)C(=O)O)C(C)C)C(C)C [PTH(1-34), reference compound]",,,,,,,,,,"% degradation of peptides in 24 h when incubated with liver microsomes ([1]; human liver microsomes, 37° C., peptide 2 μM): 100%; half-life ([1]; human liver microsomes, 37° C., peptide 2 μM, read-out: half-life (t1/2) in liver microsomes): 0.1 h; metabolised at 1 h ([1]; pH 7.8, human liver microsomes, within 1 h, 37° C., preliminary experiments, read-out: degradation): ~50%; % degradation of peptides in 24 h when incubated with simulated gastric fluid ([2]; simulated gastric fluid pH 1.5, 37° C., peptide 2 μM): 100%; metabolised at 1 h ([2]; pH 1.5, simulated gastric fluid, within 1 h, 37° C., preliminary experiments, read-out: degradation): ~50%; half-life ([2]; simulated gastric fluid pH 1.5, 37° C., peptide 2 μM, read-out: half-life (t1/2) in simulated gastric fluid): 0.1 h; % degradation of peptides in 24 h when incubated with simulated intestinal fluid ([3]; simulated intestinal fluid pH 7.5, 37° C., peptide 2 μM): 100%; metabolised at 1 h ([3]; pH 7.5, simulated intestinal fluid, within 1 h, 37° C., preliminary experiments, read-out: degradation): ~50%; half-life ([3]; simulated intestinal fluid pH 7.5, 37° C., peptide 2 μM, read-out: half-life (t1/2) in simulated intestinal fluid): 0.2 h; % degradation of peptides in 24 h when incubated with human plasma ([4]; 24 h, human plasma, 37° C., peptide 2 μM): 97%; half-life ([4]; human plasma, 37° C., peptide 2 μM, read-out: half-life (t1/2) in human plasma): 0.5 h; metabolised at 1 h ([4]; pH 7.8, human plasma, within 1 h, 37° C., preliminary experiments, read-out: degradation): ~50%"
"CCCC[C@H](NC(=O)C(C)(Cc1c(F)cccc1F)NC(=O)[C@H](CCC(N)=O)NC(=O)[C@@H](NC(=O)[C@H](CCC(=O)O)NC(=O)C(C)(C)NC(=O)[C@@H](NC(=O)C(C)(C)N)C(C)C)[C@@H](C)CC)C(=O)N[C@@H](Cc1c[nH]cn1)C(=O)N[C@@H](CCC(N)=O)C(=O)NC(C)(Cc1c(F)cccc1F)C(=O)N[C@@H](C)C(=O)N[C@@H](CCCNC(=N)N[N+](=O)[O-])C(=O)NC(C)(Cc1ccccc1F)C(N)=O (stereo partly shown) [Seq. ID. 525] (H-[Aib]V[Aib]EIQ[ξαMePhe(2,6-F2)][Nle]HQ[ξαMePhe(2,6-F2)]A[Arg(NO2)][ξαMePhe(2-F)]-NH2)",,79%,12%,,,55%,8 h,78%,1 h,half-life (t1/2) in simulated gastric fluid ([2]; pH 1.5): (8) h; half-life (t1/2) in simulated intestinal fluid ([3]; pH 7.5): (6) h
"CCCC[C@H](NC(=O)C(C)(Cc1c(F)cccc1F)NC(=O)[C@H](CCC(N)=O)NC(=O)[C@@H](NC(=O)[C@H](CCC(=O)O)NC(=O)C(C)(C)NC(=O)[C@@H](NC(=O)C1(N)CC1)C(C)C)[C@@H](C)CC)C(=O)N[C@@H](Cc1c[nH]cn1)C(=O)N[C@@H](CCC(N)=O)C(=O)N[C@@H](CCCCNC(=N)N)C(=O)N1CCCC1(C)C(=O)N[C@@H](CCCCN)C(=O)NC(C)(Cc1ccccc1F)C(N)=O (stereo partly shown) [Seq. ID. 75] (H-[Ac3c]V[Aib]EIQ[ξαMePhe(2,6-F2)][Nle]HQ[hArg][ξαMeP]K[ξαMePhe(2-F)]-NH2)",,100%,100%,0.5 h,0.5 h,100%,,78%,0.5 h,"half-life (t1/2) in human plasma ([4]; human, plasma): (9) h"
CCc1cc(OC)ccc1-c1ccc(CC(NC(=O)[C@H](CCCCNC(=N)N)NC(=O)[C@H](C)NC(=O)[C@H](CCCCNC(=N)N)NC(=O)[C@H](CCC(N)=O)NC(=O)[C@H](Cc2c[nH]cn2)NC(=O)C(C)(CCSC)NC(=O)[C@H](CC(C)C)NC(=O)[C@H](CCC(N)=O)NC(=O)[C@@H](NC(=O)[C@H](CCC(=O)O)NC(=O)C(C)(C)NC(=O)[C@@H](NC(=O)C(C)(C)NC(=O)[C@@H](N)C(C)C)C(C)C)[C@@H](C)CC)C(=O)NC(C)(CCCc2ccccc2)C(N)=O)cc1 (stereo partly shown) [Seq. ID. 920] (H-V[Aib]V[Aib]EIQL[ξαMeM]HQ[hArg]A[hArg][ξBip(2'-Et-4'-OMe)][ξαMe(hhPhe)]-NH2),(5) h,35%,00%,> 24 h,> 24 h,00%,> 24 h,0%,,
"CCCC[C@H](NC(=O)C(C)(Cc1c(F)cccc1F)NC(=O)[C@H](CCC(N)=O)NC(=O)[C@@H](NC(=O)[C@H](CCC(=O)O)NC(=O)C1(NC(=O)[C@@H](NC(=O)C2(N)CCCC2)C(C)C)CCCC1)[C@@H](C)CC)C(=O)N[C@@H](Cc1c[nH]cn1)C(=O)N[C@@H](CCC(N)=O)C(=O)N[C@@H](CCCCNC(=N)N)C(=O)N1CCCC1(C)C(=O)N[C@@H](CCCCN)C(=O)NC(C)(Cc1ccccc1)C(N)=O (stereo partly shown) [Seq. ID. 46] (H-[Ac5c]V[Ac5c]EIQ[ξαMePhe(2,6-F2)][Nle]HQ[hArg][ξαMeP]K[ξαMeF]-NH2)",(5) h,31%,00%,> 24 h,> 24 h,00%,> 24 h,0%,,
